Reference: patent US6512004B2, “Promoters of neural regeneration” (The Regents of the University of California, priority 1998, dated 2003)
Entries after “also recorded” stand apart in the source; their conditions may differ.

Key:
Format in all cases: cell-based
[1] = system: growth cones of the cultured Xenopus spinal neuron; experiment: Growth cone turning in a Sema III gradient; settings: for conversion of the Sema III turning response in the presence of 8-br-cGMP: 8-br-cGMP 100 μM plus Rp-cAMPS or Sp-cAMPS 20 μM; for growth cone turning response in Sema III gradient with agent in culture medium: Sema III 50 μg/ml in the pipette, 8-br-cGMP 100 μM, Sp-cGMPS 10 μM, PP-9 10 μM, SNAP 300 μM, Rp-cGMPS 10 μM, cAMPS analogues 20 μM, one-hour exposure
Description: Collapsin-1/Semaphorin III/D (Sema III), a diffusible member of the semaphorin family can repel or cause collapse of growth cones in culture (6). […] We analyzed the effect of a microscopic gradient of Sema III on growth cones of the cultured Xenopus spinal neuron (8). Sema III-containing saline was applied in pulses from a micropipette positioned 100 μm from the center of the growth cone and at a 45° angle with respect to the original direction of neurite extension. […] The repulsive response was dose-dependent with a minimal response occurring at an effective concentration of about 10 ng/ml at the growth cone (8). Heat-inactivated Sema III was ineffective (FIG. 1A). […] The rate of neurite extension was unaffected by the presence of the Sema III gradient.
(§1) 8. Dissociated Xenopus spinal neurons were prepared as described (4,5). Isolated spinal neurons were used for experiments at room temperature (22°-24° C.) 14-22 hour after plating. Sema III was purified from conditioned medium of stable 293-EBNA cell lines secreting Sema III-AP as described (17). To inactivate Sema III activity, the supernatant containing Sema III-AP was heated at 85° C. for 45 minutes [J. Fan and J. A. Raper, Neuron 14, 263 (1995)]. Microscopic gradients of diffusible factors were produced as described (4,5). The average concentration of factors at the growth cone was about 10^3-fold lower than that in the pipette [A. M. Lohof, M. Quilian, Y. Dan and M-m. Poo, J. Neurosci. 12, 1253 (1992)], and a concentration gradient of 5-10% was created across a growth cone 10 μm wide, 100 μm away from the tip of the ejecting pipette. The original direction of neurite growth was defined by the last 10-μm segment of the neurite. The turning angle was defined by the angle between the original direction of neurite extension and a straight line connecting the positions of the growth cone at the onset and the end of the one hour period. Only growth cones with a net extension >5 μm over the one-hour period were scored.
(§2) 10. M. A. Schwarzschild and R. E. Zigmond, J. Neurochem. 56, 400 (1991). Pharmacological agents were added to the culture medium at least 30 minutes before the gradient was applied and were present during the experiments. The final concentrations of pharmacological agents in the medium were listed.

[2] = system: rat dorsal root ganglion (DRG) axons; experiment: Growth cone collapse assay with Sema III on DRG explants; settings: for inhibition of the collapsing activity of Sema III: agent added an hour before the collapse assay; for effect of agent alone on growth cones: without Sema III
Description: 21. DRG explants derived from E14 rat embryos were cultured with 25 ng/ml NGF on plates precoated with poly-D-lysine and laminin for 20 hours before experiments as described (17). Pharmacological agents were added an hour before the collapse assay. The collapse assay was performed on sensory axons from these explants using Sema III-AP-containing medium essentially as described (17). For visualization, growth cones were stained with rhodamine-phalloidin, then washed and mounted.

[3] = system: growth cones of Xenopus spinal neurons; experiment: Growth cone turning in a rMAG gradient; settings: for growth cone turning response in rMAG gradient with agent in medium: rMAG 150 μg/ml in the pipette, 8-br-cGMP 100 μM, Sp-cAMPS 20 μM
Source text: To examine whether the responses to other repulsive factors can be converted, we studied myelin-associated glycoprotein (MAG), a component of myelin and an inhibitor of axonal regeneration (22). […] However, the repulsion by rMAG was not affected by the addition of 8-br-cGMP. […] Thus the turning response induced by rMAG can be modulated by cAMP-dependent activities. This is reminiscent of the turning responses induced by gradients of BDNF and netrin-1 (4,5), although the latter factors are normally attractive and are converted to repulsive by inhibition of cAMP-dependent activities.
as §1
10. M. A. Schwarzschild and R. E. Zigmond, J. Neurochem. 56, 400 (1991). Pharmacological agents were added to the culture medium at least 30 minutes before the gradient was applied and were present during the experiments. […]

[4] = system: growth cones of Xenopus spinal neurons; experiment: Growth cone turning in a netrin-1 gradient; settings: for turning response in netrin-1 gradient with agent in medium: netrin-1 5 μg/ml in the pipette, Rp-cGMPS 10 μM, 8-br-cGMP 100 μM, Rp-cAMPS 20 μM
Description: (§3) FIGS. 4A-4D. (A) Effects of manipulating cyclic nucleotide levels on turning induced by a rMAG gradient (150 μg/ml in the pipette) in normal medium, in medium containing 8-br-cGMP (100 μM) or Sp-cAMPS (20 μM), and by heat-inactivated rMAG in normal medium. […] (B) Effects of reducing [Ca^2+]o on turning responses induced by rMAG. […] (C) Turning responses induced by a gradient of netrin-1 (5 μg/ml in the pipette) (5), in normal medium and in medium containing Rp-cGMPS (10 μM), 8-br-cGMP (100 μM), Rp-cAMPS (20 μM), or both Rp-cAMPS (20 μM) and 8-br-cGMP (100 μM). […] (D) Turning induced by a NT-3 gradient (50 μg/ml in the pipette) in normal medium and in medium containing Rp-cAMPS (20 μM) or Rp-cGMPS (10 μM), or in medium containing 1 μM Ca^2+.
as §1, §2

[5] = system: growth cones of Xenopus spinal neurons; experiment: Growth cone turning in a NT-3 gradient; settings: NT-3 50 μg/ml in the pipette; Rp-cGMPS 10 μM, Rp-cAMPS 20 μM
Description: as §3
8. Dissociated Xenopus spinal neurons were prepared as described (4,5). Isolated spinal neurons were used for experiments at room temperature (22°-24° C.) 14-22 hour after plating. Sema III was purified from conditioned medium of stable 293-EBNA cell lines secreting Sema III-AP as described (17). To inactivate Sema III activity, the supernatant containing Sema III-AP was heated at 85° C. for 45 minutes [J. Fan and J. A. Raper, Neuron 14, 263 (1995)]. Microscopic gradients of diffusible factors were produced as described (4,5). […] Only growth cones with a net extension >5 μm over the one-hour period were scored. […]

Nc1ncnc2c1ncn2[C@@H]1O[C@@H]2COP(O)(=S)O[C@H]2[C@H]1O (stereo partly drawn) [Sp-cAMPS]
conversion of the Sema III turning response in the presence of 8-br-cGMP [1]: not | inhibition of the collapsing activity of Sema III [2]: not | effect of agent alone on growth cones [2]: no detectable effect | growth cone turning response in rMAG gradient with agent in medium [3]: converted to attraction

Nc1nc2c(ncn2[C@@H]2O[C@@H]3COP(O)(=S)O[C@H]3[C@H]2O)c(=O)[nH]1 (stereo partly drawn) [Rp-cGMPS]
growth cone turning response in Sema III gradient with agent in culture medium [1]: did not affect the growth cone response | turning response in netrin-1 gradient with agent in medium [4]: did not affect the attractive turning | attractive response in a NT-3 gradient with agent in medium [5]: converted to repulsive response

Nc1nc2c(ncn2[C@@H]2O[C@@H]3COP(O)(=S)O[C@H]3[C@H]2O)c(=O)[nH]1 (stereo partly drawn) [Sp-cGMPS]
growth cone turning response in Sema III gradient with agent in culture medium [1]: nearly all growth cones turned toward rather than away from the pipette

CC(=O)N[C@H](C(=O)O)C(C)(C)SN=O (racemic) [S-Nitroso-N-acetylpenicillamine]
growth cone turning response in Sema III gradient with agent in culture medium [1]: abolished the repulsive turning response without causing a significant attractive response

Nc1nc2c(nc(Br)n2[C@@H]2O[C@@H]3COP(=O)(O)O[C@H]3[C@H]2O)c(=O)[nH]1 [Activator 8-br-cGMP, 8-br-cGMP]
growth cone turning response in Sema III gradient with agent in culture medium [1]: nearly all growth cones turned toward rather than away from the pipette; also recorded: attractive response | inhibition of the collapsing activity of Sema III [2]: inhibited the collapsing activity of Sema III in a dose-dependent manner | concentrations needed to inhibit the collapsing activity of Sema III ([2]; rat DRG explants): 0.5 to 5 mM | effect of agent alone on growth cones [2]: no detectable effect | growth cone turning response in rMAG gradient with agent in medium [3]: not affected | repulsive turning in netrin-1 gradient in the presence of Rp-cAMPS ([4]; Rp-cAMPS 20 μM and 8-br-cGMP 100 μM): not affected | turning response in netrin-1 gradient with agent in medium [4]: did not affect the attractive turning

Nc1ncnc2c1ncn2[C@@H]1O[C@@H]2CO[P@@](O)(=S)O[C@H]2[C@H]1O [Rp-cAMPS]
conversion of the Sema III turning response in the presence of 8-br-cGMP [1]: blocked the conversion of the turning response | turning response in netrin-1 gradient with agent in medium [4]: repulsive turning | attractive response in a NT-3 gradient with agent in medium [5]: no effect

B1: rMAG: recombinant protein consisting of the extracellular domain of MAG (protein, UniProt P07722 20-516, looked up)
extracellular domain: GHWGAWMPSSISAFEGTCVSIPCRFDFPDELRPAVVHGVWYFNSPYPKNYPPVVFKSRTQVVHESFQGRSRLLGDLGLRNCTLLLSTLSPELGGKYYFRGDLGGYNQYTFSEHSVLDIINTPNIVVPPEVVAGTEVEVSCMVPDNCPELRPELSWLGHEGLGEPTVLGRLREDEGTWVQVSLLHFVPTREANGHRLGCQAAFPNTTLQFEGYASLDVKYPPVIVEMNSSVEAIEGSHVSLLCGADSNPPPLLTWMRDGMVLREAVAESLYLDLEEVTPAEDGIYACLAENAYGQDNRTVELSVMYAPWKPTVNGTVVAVEGETVSILCSTQSNPDPILTIFKEKQILATVIYESQLQLELPAVTPEDDGEYWCVAENQYGQRATAFNLSVEFAPIILLESHCAAARDTVQCLCVVKSNPEPSVAFELPSRNVTVNETEREFVYSERSGLLLTSILTLRGQAQAPPRVICTSRNLYGTQSLELPFQGAHRLMWAKIGP
modifications: extracellular domain
notes: recombinant protein consisting of the extracellular domain of MAG
growth cone turning induced by the rMAG gradient ([3]; normal medium): repelled growth cones

B2: Sema III: a diffusible member of the semaphorin family, purified from conditioned medium of 293-EBNA cell lines (protein, UniProt Q14563 21-771, looked up)
Semaphorin-3A: NYQNGKNNVPRLKLSYKEMLESNNVITFNGLANSSSYHTFLLDEERSRLYVGAKDHIFSFDLVNIKDFQKIVWPVSYTRRDECKWAGKDILKECANFIKVLKAYNQTHLYACGTGAFHPICTYIEIGHHPEDNIFKLENSHFENGRGKSPYDPKLLTASLLIDGELYSGTAADFMGRDFAIFRTLGHHHPIRTEQHDSRWLNDPKFISAHLISESDNPEDDKVYFFFRENAIDGEHSGKATHARIGQICKNDFGGHRSLVNKWTTFLKARLICSVPGPNGIDTHFDELQDVFLMNFKDPKNPVVYGVFTTSSNIFKGSAVCMYSMSDVRRVFLGPYAHRDGPNYQWVPYQGRVPYPRPGTCPSKTFGGFDSTKDLPDDVITFARSHPAMYNPVFPMNNRPIVIKTDVNYQFTQIVVDRVDAEDGQYDVMFIGTDVGTVLKVVSIPKETWYDLEEVLLEEMTVFREPTAISAMELSTKQQQLYIGSTAGVAQLPLHRCDIYGKACAECCLARDPYCAWDGSACSRYFPTAKRRTRRQDIRNGDPLTHCSDLHHDNHHGHSPEERIIYGVENSSTFLECSPKSQRALVYWQFQRRNEERKEEIRVDDHIIRTDQGLLLRSLQQKDSGNYLCHAVEHGFIQTLLKVTLEVIDTEHLEELLHKDDDGDGSKTKEMSNSMTPSQKVWYRDFMQLINHPNLNTMDEFCEQVWKRDRKQRRQRPGHTPGNSNKWKHLQENKKGRNRRTHEFERAPRSV
rate of neurite extension ([1]; in the presence of the Sema III gradient): unaffected | effective concentration at the growth cone for minimal repulsive response ([1]; normal medium): about 10 ng/ml | growth cone turning induced by the factor gradient ([1]; normal medium, pipette 100 μm from growth cone, 45° angle): Most growth cones grew away from the pipette | collapse of growth cones ([1]; up to 100 μg/ml of Sema III in the pipette): No obvious collapse of growth cones
